Reference: publication PMC8954846, “Molecular Characterisation of Flavanone O-methylation in Eucalyptus” (International Journal of Molecular Sciences, 2022)
Read-outs that look alike come from different tables or passages of the source.

Columns and labels:
EnOMT1 = test system: T1, EnOMT1; assay: methyltransferase assay, RP-HPLC of pinostrobin formed, Michaelis-Menten fit; type: biochemical, Eucalyptus nitida; conditions: crude recombinant E. coli extract, 50 mM potassium phosphate pH 7, 30 °C, read-out: apparent Km
T1 construct: gene OMT1; full-length, 349 residues; E. coli BL21 (DE3)

EmOMT1 = test system: T2, EmOMT1; assay: methyltransferase assay, RP-HPLC, extrapolated non-linear regression; type: biochemical, Eucalyptus mitchelliana; conditions: crude recombinant E. coli extract, SAM, 50 mM potassium phosphate pH 7, 30 °C, 16 h incubation needed for product, read-out: apparent Km
T2 construct: gene OMT1; full-length

EcOMT1 = test system: T3, EcOMT1; assay: methyltransferase assay, RP-HPLC of pinostrobin formed, Michaelis-Menten fit; type: biochemical, Eucalyptus croajingolensis; conditions: crude recombinant E. coli extract; SAM; 50 mM potassium phosphate pH 7, 30 °C; read-out: apparent Km app
T3 construct: gene OMT1; full-length

Row | Km (EnOMT1; 50 μM pinocembrin, methyl donor) | Km (EmOMT1) | Km (EnOMT1; 100 μM SAM, kcat from His-affinity purified enzyme) | Km (EcOMT1) | SMILES
1 | 4.99 ± 0.29 µM |  |  |  | C[S+](CC[C@H](N)C(=O)O)C[C@H]1O[C@@H](n2cnc3c(N)ncnc32)[C@H](O)[C@@H]1O (stereo partly shown) [S-adenosylmethionine]
2 |  | > 800 µM | 2.05 ± 0.16 µM | 2.55 ± 0.38 µM | O=C1C[C@@H](c2ccccc2)Oc2cc(O)cc(O)c21 [pinocembrin]
